{"source": "patent US11923581B2", "about": "“Aqueous redox flow battery electrolytes with high chemical and electrochemical stability, high water solubility, low membrane permeability” (President and Fellows of Harvard College, priority 2016, dated 2024)", "key": {"Solubility in water": {"assay": "Solubility in water", "conditions": "25° C."}, "[1]": {"assay": "Cyclic voltammetry, reduction potential", "type": "physicochemical"}, "[2]": {"conditions": "cited from earlier work"}, "physchem": {"assay": "physchem", "conditions": "25 °C, thermodynamic from solid"}}, "data": [{"smiles": "C[N+](C)(C)C[c-]1cccc1.F[B-](F)(F)F.[Fe+2].c1cc[cH-]c1", "note": "[Compound 3]", "values": [{"measurement": "water solubility", "setting": "Solubility in water", "result": "~0.4", "unit": "M"}, {"measurement": "reduction potential vs. RHE", "setting": "[1]; pH 7, converted from the measured potential", "result": "+1.05 V"}, {"measurement": "reduction potential vs. Ag/AgCl reference electrode", "setting": "[1]; pH 7, cyclic voltammetry", "result": "+0.43 V"}]}, {"smiles": "C[N+](C)(C)CCC[c-]1cccc1.C[N+](C)(C)CCC[c-]1cccc1.[Cl-].[Cl-].[Fe+2]", "note": "[Compound 2, bis((3-trimethylammonio)propyl)ferrocene dichloride]", "values": [{"measurement": "reduction potential vs. Ag/AgCl reference electrode", "setting": "[1]; pH 7", "result": "+0.21 V"}, {"measurement": "reduction potential vs. RHE", "setting": "[1]; pH 7", "result": "+0.83 V"}]}, {"smiles": "C[n+]1ccc(-c2cc[n+](C)cc2)cc1", "note": "[MV dichloride, methyl viologen]", "values": [{"measurement": "solubility in water at pH 7", "setting": "[2]", "result": 3.0, "unit": "M"}]}, {"smiles": "C[N+](C)(C)CCCNC(=O)[c-]1cccc1.[Cl-].[Fe+2].c1cc[cH-]c1", "note": "[Compound 7, N-((3-trimethylammonio)propyl) ferrocenecarboxamide chloride]", "values": [{"measurement": "reduction potential higher than that of 2", "setting": "[1]; pH 7", "result": "~240", "unit": "mV"}, {"measurement": "reduction potential vs SHE", "setting": "[1]; pH 7", "result": "+0.63 V"}, {"measurement": "reduction potential vs. RHE", "setting": "[1]; pH 7", "result": "+1.04 V"}]}, {"smiles": "C[N+](C)(C)CCC[n+]1ccc(-c2cc[n+](CCC[N+](C)(C)C)cc2)cc1", "note": "[Compound 1, (3-trimethylammonio)propyl viologen tetrachloride]", "values": [{"measurement": "solubility", "setting": "physchem; pH 7, water", "result": 2000, "unit": "mM"}, {"measurement": "solubility", "setting": "physchem; water", "result": 2000, "unit": "mM"}, {"measurement": "reduction potential vs. Ag/AgCl reference electrode", "setting": "[1]; pH 7", "result": "−0.55", "unit": "V"}, {"measurement": "reduction potential vs. RHE", "setting": "[1]; pH 7", "result": "+0.07 V"}]}]}
